Holding throughout (format): physicochemical
Series [1] in a line: Dissolution time in water by Modified United States Pharmacopeia Method 641. The procedure:
As used herein, the term “Modified United States Pharmacopeia Method 641” denotes a modified form of the Standard United States Pharmacopeia Method 641, where the Modified United States Pharmacopeia Method 641 is carried out as follows: • Place 1.8 g of the particulate iohexol in a meticulously clean, glass-stoppered, 50 mL glass cylinder approximately 1:10 diameter to height in size. • Fill 40 mL of tap water adjusted to 10° C. (±2° C.) into the glass cylinder. • Immediately start shaking the glass cylinder and start recording total time. • Shake the glass cylinder with an up and down movement, keeping the frequency at 12-13 movements per 5 seconds. • After 20 seconds observe for 3 seconds for completeness of dissolution. • Evaluate after 3 seconds, when the bubbles disappear, comparing with pure solvent. • If dissolved completely, record “dissolved in 20 seconds”. • If not dissolved completely, continue shaking for a total time 30 sec • Repeat the dissolution evaluation at 30 seconds, 40 seconds, 1 min., and 1 min. 30 seconds. • Always repeat the dissolution evaluation using the same procedure. • If dissolved completely at time point 1 min 30 sec, record “dissolved in NMT 1 min 30 sec”. • If not dissolved, record “not dissolved in 1 min 30 sec”. 20 oz (600 ml) modified beverage PET bottle for Iohexol Powder for Oral Solution product; 50 ml testing glass cylinder; Tap water. Samples were tested using the Modified USP Method <641> as described herein.

Series [2] can be described thus: Particle size distribution (D10, D50, D90). As to conditions: for Particle Size distribution (μm) D50: Table 6, Example 5; for Particle Size distribution (μm) D10 / Particle Size distribution (μm) D90: Table 6. An excerpt:
As used herein, the “D90” of a particulate material denotes a diameter value for the particles in the material at which about 90% of the particles have a diameter below the diameter value. For example, in a sample with a D90 of 20 μm, 90% of the particles in the sample have a diameter of 20 μm or less. As used herein, the “D50” of a material denotes a diameter value for the particles in the material at which about 50% of the particles have a diameter below the diameter value. For example, in a sample with a D50 of 10 μm, 50% of the particles in the sample have a diameter of 10 μm or less. As used herein, the “D10” of a material denotes a diameter value for the particles in the material at which about 10% of the particles have a diameter below the diameter value. For example, in a sample with a D10 of 5 μm, 10% of the particles in the sample have a diameter of 5 μm or less.

Series [3] is described as follows: Specific surface area by low-temperature nitrogen adsorption (BET). As to conditions: Table 6, Example 5. The procedure:
Specific surface area was measured using a low-temperature nitrogen adsorption apparatus, a Pulse Chemisorb 2700.
The specific surface area data, which were evaluated using a BET isotherm, support the nonporous nature/character of the particles. The measured value of the specific surface area was about 2.8 m^2/g, which is consistent with the calculation of the specific surface area of hypothetical material which consists of non-porous spheres with a radius of 3 μm. Considering the skeletal density of crystallized iohexol (2.097 g/cm3), the calculated specific surface area of this hypothetical material is about 4 m^2/g. All data provided by analyses appear to support the conclusion that the crystallized iohexol solid material contains agglomerates consisting of small nonporous particles and that the total specific area is the sum of the outer surface areas of these particles.
Experimentally obtained values of the specific surface area are very low, which is typical of macroporous to non-porous materials. Experimental specific surface area values for all samples are in good agreement with the estimated values based on SEM image analysis, (calculating the particle surface area based on the geometrical shape of particles, i.e., and assuming that the particles are not porous (confirmed by mercury porosimetry as discussed above). Individual values and comparisons of the amount of nitrogen desorption for each sample are summarized in Table 5.

Series [4] is described as follows: Bulk density. As to conditions: Table 6. An excerpt: As used herein, the term “bulk density” of a material denotes total mass of the material divided by the total volume occupied by the material. As used herein, the term “interparticle spacing” denotes the percentage of the “bulk” particle volume which is free space. The interparticle spacing can be calculated from the bulk density and skeletal density. As discussed above, bulk density refers to the density determined by dividing the weight of the sample by its measured volume, for example using the USP <616> method. The skeletal density, sometimes referred to as the “true density,” is determined by dividing the weight of a sample by its “true” volume—i.e., the volume excluding interstitial voids and any open porosity in the sample (e.g., determined by gas displacement techniques). Interparticle spacing can be calculated from the bulk density and skeletal density as exemplified herein: if the bulk density of a particular iohexol sample is ˜0.9 g/cm^3, the corresponding “bulk” volume for 1 g of the sample is 1.11 cm^3; and if the skeletal density of the sample is ˜2 g/cm^3, the corresponding “skeletal” volume (i.e. volume with porosity excluded) for 1 g of this sample is 0.5 cm^3. The difference between the “bulk” volume and “skeletal” volume, 0.61 cm^3, represents the volume of the free space (porosity) in the particle. The interparticle spacing is the difference between the “skeletal” volume and bulk volume, divided by the “bulk” volume, expressed as a percentage (i.e. 0.61 cm^3/1.11 cm^3=55% in this example).

Series [5] can be described thus: Interparticle spacing calculated from bulk and skeletal density. The procedure:
As used herein, the term “interparticle spacing” denotes the percentage of the “bulk” particle volume which is free space. The interparticle spacing can be calculated from the bulk density and skeletal density. As discussed above, bulk density refers to the density determined by dividing the weight of the sample by its measured volume, for example using the USP <616> method. The skeletal density, sometimes referred to as the “true density,” is determined by dividing the weight of a sample by its “true” volume—i.e., the volume excluding interstitial voids and any open porosity in the sample (e.g., determined by gas displacement techniques).

Series [6] is described as follows: Skeletal density by helium pycnometer. Particulars: Table 6. The procedure:
As used herein, the term “interparticle spacing” denotes the percentage of the “bulk” particle volume which is free space. The interparticle spacing can be calculated from the bulk density and skeletal density. As discussed above, bulk density refers to the density determined by dividing the weight of the sample by its measured volume, for example using the USP <616> method. The skeletal density, sometimes referred to as the “true density,” is determined by dividing the weight of a sample by its “true” volume—i.e., the volume excluding interstitial voids and any open porosity in the sample (e.g., determined by gas displacement techniques). […] The porosity of the iohexol particles was also investigated using mercury intrusion, and the skeletal density was determined by helium pycnometer and physical adsorption of nitrogen.

Turning to `CC(=O)N(CC(O)CO)c1c(I)c(C(=O)NCC(O)CO)c(I)c(C(=O)NCC(O)CO)c1I` (centres unmarked) [Batch 01206013, iohexol], the “Dissolution time” value in series [1] (Table 4, 1.8 g in 40 mL tap water at 10° C., manual shaking, listed as 01206013) came to 40 s. Further, the “Dissolution time” value in series [1] (Table 6, Example 5, listed as 01206013) was 40 s. In addition, in series [2] (listed as 01206013), the “Particle Size distribution (μm) D50” value is on record as 10 μm, the “Particle Size distribution (μm) D10” value was determined as 5 μm and the “Particle Size distribution (μm) D90” value was found to be 15 μm. Further, the “Specific surface area m^2/g” value in series [3] (listed as 01206013) turned out to be 4.00 m^2/g. In addition, the “Bulk density (g/cm3)” value in series [4] (listed as 01206013) is on record as 0.56 g/cm3. For the same compound, the “Interparticle space (% of bulk volume)” value in series [5] (Table 6, listed as 01206013) is recorded as 73 % of bulk volume.

As for `CC(=O)N(CC(O)CO)c1c(I)c(C(=O)NCC(O)CO)c(I)c(C(=O)NCC(O)CO)c1I` (centres unmarked) [Conventional Sample #1, iohexol], the “Dissolution time” value in series [1] (Table 6, Example 5) is listed as 90 s. In series [2], the “Particle Size distribution (μm) D10” value turned out to be 7 μm, the “Particle Size distribution (μm) D90” value was found to be 61 μm and the “Particle Size distribution (μm) D50” value was determined as 27 μm. Further, the “Specific surface area m^2/g” value in series [3] worked out at 0.50 m^2/g. The “Skeletal density (g/cm3)” value in series [6] came out at 2.0 g/cm3. Further, in series [4], the “Bulk density (g/cm3)” value amounted to 0.90 g/cm3. For the same compound, the “Interparticle space (% of bulk volume)” value in series [5] (Table 6) is 56 % of bulk volume.

With `CC(=O)N(CC(O)CO)c1c(I)c(C(=O)NCC(O)CO)c(I)c(C(=O)NCC(O)CO)c1I` (centres unmarked) [Batch 03302012, iohexol], the “Dissolution time” value in series [1] (Table 4, 1.8 g in 40 mL tap water at 10° C., manual shaking, listed as 03302012) is recorded as 40 s. Besides, the “Dissolution time” value in series [1] (Table 6, Example 5, listed as 03302012) was found to be 40 s. In series [2] (listed as 03302012), the “Particle Size distribution (μm) D50” value is on record as 10 μm, the “Particle Size distribution (μm) D10” value was 5 μm and the “Particle Size distribution (μm) D90” value is given as 16 μm. For the same compound, the “Specific surface area m^2/g” value in series [3] (listed as 03302012) came to 4.00 m^2/g. Also, in series [4] (listed as 03302012), the “Bulk density (g/cm3)” value was found to be 0.56 g/cm3. The “Interparticle space (% of bulk volume)” value in series [5] (Table 6, listed as 03302012) is recorded as 73 % of bulk volume.

Turning to `CC(=O)N(CC(O)CO)c1c(I)c(C(=O)NCC(O)CO)c(I)c(C(=O)NCC(O)CO)c1I` (centres unmarked) [Batch 03202012/1, iohexol], in series [1] (Table 4, 1.8 g in 40 mL tap water at 10° C., manual shaking, listed as 03202012/1), the “Dissolution time” value amounted to 60 s. Besides, the “Dissolution time” value in series [1] (Table 6, Example 5, listed as 03202012/1) is reported as 60 s. Besides, in series [2] (listed as 03202012/1), the “Particle Size distribution (μm) D50” value turned out to be 14 μm, the “Particle Size distribution (μm) D10” value amounted to 9 μm and the “Particle Size distribution (μm) D90” value was 22 μm. In addition, the “Specific surface area m^2/g” value in series [3] (listed as 03202012/1) is recorded as 0.50 m^2/g. Further, the “Skeletal density (g/cm3)” value in series [6] is 2.0 g/cm3. The “Bulk density (g/cm3)” value in series [4] (listed as 03202012/1) worked out at 0.90 g/cm3. Further, the “Interparticle space (% of bulk volume)” value in series [5] (Table 6, listed as 03202012/1) is 56 % of bulk volume.

With `CC(=O)N(CC(O)CO)c1c(I)c(C(=O)NCC(O)CO)c(I)c(C(=O)NCC(O)CO)c1I` (centres unmarked) [Batch 03202012/9, iohexol], the “Dissolution time” value in series [1] (Table 4, 1.8 g in 40 mL tap water at 10° C., manual shaking, listed as 03202012/9) was 60 s. The “Dissolution time” value in series [1] (Table 6, Example 5, listed as 03202012/9) is given as 60 s. Further, in series [2] (listed as 03202012/9), the “Particle Size distribution (μm) D50” value is 20 μm, the “Particle Size distribution (μm) D10” value is 11 μm and the “Particle Size distribution (μm) D90” value amounted to 35 μm. Besides, in series [3] (listed as 03202012/9), the “Specific surface area m^2/g” value is given as 0.50 m^2/g. Also, the “Skeletal density (g/cm3)” value in series [6] was 2.0 g/cm3. In addition, the “Bulk density (g/cm3)” value in series [4] (listed as 03202012/9) is on record as 0.90 g/cm3. For the same compound, in series [5] (Table 6, listed as 03202012/9), the “Interparticle space (% of bulk volume)” value is given as 56 % of bulk volume.

In the case of `CC(=O)N(CC(O)CO)c1c(I)c(C(=O)NCC(O)CO)c(I)c(C(=O)NCC(O)CO)c1I` (centres unmarked) [Batch 03202012/8, iohexol], the “Dissolution time” value in series [1] (Table 4, 1.8 g in 40 mL tap water at 10° C., manual shaking, listed as 03202012/8) was 40 s. In addition, in series [1] (Table 6, Example 5, listed as 03202012/8), the “Dissolution time” value came to 40 s. Besides, in series [2] (listed as 03202012/8), the “Particle Size distribution (μm) D50” value is listed as 12 μm, the “Particle Size distribution (μm) D10” value came to 7 μm and the “Particle Size distribution (μm) D90” value amounted to 19 μm. The “Specific surface area m^2/g” value in series [3] (listed as 03202012/8) stood at 0.50 m^2/g. In series [6], the “Skeletal density (g/cm3)” value was 2.0 g/cm3. For the same compound, the “Bulk density (g/cm3)” value in series [4] (listed as 03202012/8) turned out to be 0.90 g/cm3. Moreover, the “Interparticle space (% of bulk volume)” value in series [5] (Table 6, listed as 03202012/8) is on record as 56 % of bulk volume.

For `CC(=O)N(CC(O)CO)c1c(I)c(C(=O)NCC(O)CO)c(I)c(C(=O)NCC(O)CO)c1I` (centres unmarked) [Conventional Sample #2, iohexol], in series [1] (Table 6, Example 5), the “Dissolution time” value is 90 s. In addition, in series [2], the “Particle Size distribution (μm) D10” value is recorded as 7 μm, the “Particle Size distribution (μm) D90” value is on record as 66 μm and the “Particle Size distribution (μm) D50” value came to 29 μm. For the same compound, the “Specific surface area m^2/g” value in series [3] stood at 0.50 m^2/g. For the same compound, the “Skeletal density (g/cm3)” value in series [6] worked out at 2.0 g/cm3. In addition, the “Bulk density (g/cm3)” value in series [4] is reported as 0.90 g/cm3. In addition, the “Interparticle space (% of bulk volume)” value in series [5] (Table 6) was 56 % of bulk volume.
